Molecular target: T1, rat liver microsomal HMGCoA reductase (Rattus norvegicus, UniProt P51639)
T1 construct: rat liver microsomal HMGCoA reductase; from tissue; host or cells: rat liver microsomes
T1 sequence (P51639 1-887): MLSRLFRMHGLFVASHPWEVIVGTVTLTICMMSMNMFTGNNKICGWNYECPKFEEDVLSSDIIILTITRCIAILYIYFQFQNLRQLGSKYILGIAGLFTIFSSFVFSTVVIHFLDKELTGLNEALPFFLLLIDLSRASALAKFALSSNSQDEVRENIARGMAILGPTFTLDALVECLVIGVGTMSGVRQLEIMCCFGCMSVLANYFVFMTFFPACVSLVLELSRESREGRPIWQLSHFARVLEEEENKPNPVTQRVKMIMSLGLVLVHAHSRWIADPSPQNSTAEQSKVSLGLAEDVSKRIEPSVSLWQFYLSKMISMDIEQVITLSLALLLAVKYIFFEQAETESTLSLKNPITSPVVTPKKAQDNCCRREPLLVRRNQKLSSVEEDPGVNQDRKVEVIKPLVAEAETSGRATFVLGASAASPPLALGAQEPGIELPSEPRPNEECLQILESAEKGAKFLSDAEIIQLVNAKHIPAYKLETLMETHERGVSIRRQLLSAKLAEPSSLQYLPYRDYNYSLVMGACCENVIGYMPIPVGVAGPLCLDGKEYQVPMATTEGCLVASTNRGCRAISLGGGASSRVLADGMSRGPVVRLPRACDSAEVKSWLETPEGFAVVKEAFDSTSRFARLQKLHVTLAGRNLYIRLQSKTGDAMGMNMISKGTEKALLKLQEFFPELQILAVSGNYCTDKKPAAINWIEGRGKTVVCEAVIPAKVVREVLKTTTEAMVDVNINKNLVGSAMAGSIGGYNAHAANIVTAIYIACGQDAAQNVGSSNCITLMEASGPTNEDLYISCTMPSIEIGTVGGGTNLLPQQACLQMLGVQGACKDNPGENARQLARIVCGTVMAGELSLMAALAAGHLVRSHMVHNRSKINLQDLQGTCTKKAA
Assay: in vitro inhibition of rat liver microsomal HMGCoA reductase
Type: biochemical
Details: 40 μM 14C-HMGCoA, 15 min at 37° C., pH7.2
Protocol: The IC50 is defined as the concentration required to inhibit the enzyme by 50% of control.
Triplicate samples are preincubated for 15 min. at 37° C. in a volume of 1 ml. […] Mevalonic acid is extracted with ether and the % ^14 C-HMGCoA incorporation determined for concurrent control and test reaction systems. Testing is done (first) with a range finding assay followed by a 4 or 5 point assay to find the IC50 value.

IC50: 1 µM
Structure (SMILES): CC[C@H](C)C(=O)O[C@H]1CCC=C2C=C[C@H](C)[C@H](CC[C@@H]3C[C@@H](O)CC(=O)O3)[C@H]21 [Compactin]

Source: patent US4895973A, “Substituted glutaric acid lactones in the treatment of hyperlipidemia” (G. D. Searle & Company, priority 1988, dated 1990)
